{"source": "patent US12396977B2", "about": "“Composition for treating degenerative brain diseases, containing 2-pentylfuran as active ingredient” (DAEGU GYEONGBUK INSTITUTE OF SCIENCE AND TECHNOLOGY, priority 2019, dated 2025)", "key": {"[1]": {"tested_on": "Hana3A cells expressing Olfr110", "test": "Boyden chamber chemotaxis, Hana3A cells expressing Olfr110", "type": "cell-based", "conditions": "2-PF 10, 100, 1000 uM", "procedure": "Cell chemotaxis was measured using a multiwell Boyden chamber. More specifically, a polycarbonate filter (8 μm pore; #101-8; Neuroprobe) was coated with […] fibronectin in PBS (Sigma-Aldrich) for 2 hours, and the coated filter was placed in a Boyden chamber. In addition, the bottom side of the plate was filled with serum-free DMEM containing 2-pentylfuran or a culture supernatant. Next, microglia or Hana3A cells were transfected with an odorant receptor structure and then suspended in serum-free DMEM. Subsequently, microglia and Hana3A cells were allowed to stand at 37° C. for 4 hours and 8 hours, respectively. Cells sinking to the bottom were fixed with 4% PFA, and stained with hematoxylin for 10 minutes. Fixed cells were counted under an optical microscope in 5 randomly selected fixed […] fields (200×) using a scored eyepiece. The chemical chemotaxis index was defined as the number of migrating cells using an untreated group as a standard."}, "cerebral cortex": {"tested_on": "cerebral cortex", "test": "Cytokine mRNA in cerebral cortex after IP injection (qRT-PCR)", "type": "in vivo, mouse", "conditions": "vs control", "from_the_text": "(§1) For the measurement of mRNA, RNA was isolated from red blood cells, microglia, astrocytes, Hana3A cells, or cerebral cortical cells using the MagNa Lyser (Roche Molecular Diagnostics) using TRIzol reagent (Invitrogen, Carlsbad, CA.) according to the manufacturer's protocol. Then, cDNA was generated through reverse transcription using the isolated mRNA (using PrimeScript™ 1st str and cDNA Synthesis kit—#6110; Takara Bio Inc). This process was quantitatively measured in real time through quantitative real-time-PCR (using LightCycler® 480 SYBR Green I Master). The measured values were calculated using the 2-ΔΔCt method."}, "primary microglia [2]": {"tested_on": "primary microglia", "test": "cAMP ELISA in primary microglia", "type": "cell-based, mouse", "conditions": "2-PF 0, 100, 500 μM", "procedure": "Primary microglia were inoculated into 48 well plates (2×10^5 cells/well) and treated with 30 μM forskolin (#F3917, Sigma Aldrich), or 2-PF (10, 100, 500 μM) for 30 minutes. In order to confirm the effect of an inhibitor, 1 mM SQ22536 (#17318-31-9; Calbiochem) was first pretreated for 30 minutes. The cells were lysed in a solution of 0.1 M of HCl with 1% Triton X 100 for 10 minutes, and the lysate was centrifuged at 600×g for 2 minutes. The supernatant was directly used for cAMP analysis using a cAMP ELISA kit (Enzo Life Science) according to the manufacturer's protocol. The optical density at 405 nm was measured using a VersaMax microplate reader (Molecular Devices)."}, "Olfr110": {"tested_on": "Olfr110", "test": "Odorant receptor / Olfr110 expression in microglia (qRT-PCR, immunostaining)", "type": "cell-based, mouse", "conditions": "vs control", "from_the_text": "as §1\nThereafter, the cells were washed with PBS and fixed in 4% paraformaldehyde (#6148; Sigma Aldrich) for 5 minutes. Subsequently, the cells were cultured in PBS containing 4% normal horse serum (#008-000-121; Jackson ImmunoResearch) and 0.1% TWEEN® 20 (#P9416; Sigma-Aldrich) at room temperature for 1 hour. Then, the cells were […] at 4° C. overnight with the primary antibodies listed below. The antibodies are as follows: Olfr110 (rabbit-anti-Olfr110; 1:10,000; #ab177327; Abcam), Iba-1 (goat-anti-Iba-1; 1:1,000; #ab5076; Abcam), and GFAP (mouse-anti-GFAP; 1:1,000; #556330; BD Biosciences). Samples were cultured with secondary antibodies in PBS including 0.1% TWEEN® 20 (#P9416; Sigma-Aldrich) at room temperature for 1 hour. […]"}, "Olfr111": {"tested_on": "Olfr111", "test": "Luciferase assay in Hana3A cells, Olfr111", "type": "cell-based, mouse", "conditions": "Hana3A cells", "protocol": "Next, Hana3A cells were transfected with RTP1S, and their location and presence on the cell membrane were confirmed as previously described (Behrens et al., 2009; Zhuang and Matsunami, 2008). Such transfection was performed using Lipofectamine 2000 (#11668-019; Thermo Fisher Scientific) according to the manufacturer's instructions. More specifically, the transfected cells were grown on a coverslip (#0101050; Marienfeld) coated with poly D lysine (10 μg/ml; #P7280; Sigma Aldrich). Next, the cells were washed with a warm PBS solution and cooled with ice for 30 minutes to block endocytosis. […] The cells were then incubated with normal horse serum (#008-000-121; Jackson ImmunoResearch) at room temperature for 1 hour. […] After being washed with PBS, the cells were treated with a Cy3-conjugated donkey anti-mouse antibody (1:1,000; #715-165-150; Jackson ImmunoResearch), an Alexa488-conjugated donkey anti-mouse antibody (1:1,000; #715-545-150; Jackson ImmunoResearch), or a Cy3-conjugated donkey anti-rabbit antibody (1:1,000; #711-165-152; Jackson ImmunoResearch) at room temperature for 1 hour. The cells were mounted with a Vectashield fluorescent mounting medium containing DAPI (#H-1200; Vector Laboratories). The expression of heterologous odorant receptors was analyzed with a confocal laser scanning microscope LSM700 and ZEN software (Zeiss).\nThe Dual-Glo luciferase assay system (#E2940; Promega) was used for odorant receptor ligand screening. More specifically, Hana3A cells were streaked and spread on a white polystyrene 96-well plate (#353296; BD Biosciences) one day before transfection. pCRELuc (1 μg; #219076; Agilent Technologies), pRL-SV40 (1 μg; #E2231; Promega), RTP1S (1 μg), and OR (6 μg; or Mock) vectors were transfected for 24 hours in each plate. Each plate was analyzed using Lipofectamine 2000 (#11668-019; Thermo Fisher Scientific) according to the manufacturer's protocol. Transfected cells were stimulated in CD293 medium (#11913-019; Thermo Fisher Scientific) at 37° C. for 4 hours using diluted odorants at various concentrations. The activity of luciferase was normalized by the activity of Renilla luciferase. The amount of light emitted was measured using a SpectraMax L microplate reader (Molecular Devices)."}, "[3]": {"test": "Disease behavior: mouse mobility (movement distance) after IP injection", "type": "in vivo", "conditions": "after intraperitoneal (IP) injection", "procedure": "It is known that an increase in disease behavior by activation of microglia is due to an increase in secreted cytokines. This experiment was conducted to confirm an increase in disease behavior with an increase in cytokines. The evaluation of disease behavior was made after IP injection of Sup or 2-PF into the mice.\nAfter IP injection, the mouse was placed in a space with four open sides (40×40×40 cm, white field, black wall), and after the position of the mouse was recorded for 30 minutes using a camera, the movement distance was calculated Thereafter, a pseudo-color heat map was drawn using EthoVision XT (Noldus, Netherlands)."}, "primary microglia [4]": {"tested_on": "primary microglia", "test": "Western blot of phosphorylated signalling proteins in primary microglia", "type": "cell-based, mouse", "conditions": "0, 2, 5, 10, 20, 30 minutes after treatment", "procedure": "Cells and tissues were prepared using the T-PER® reagent (#78510; Thermo Fisher Scientific) with protease inhibitors (#04-693-116-001; Roche Molecular Diagnostics), DMSF (Sigma-Aldrich) and lysed using the MagNA Lyser (Roche Molecular Diagnostics). A total protein extract was quantified by the Bradford assay. The sample was dissolved in 7.5% SDS-PAGE or 4 to 20% gradient mini-PROTEIN TGX Precast Gels (#456-1064; Bio-Rad Laboratories), and then blotted onto nitrocellulose membranes (#10600002; GE Healthcare). The membrane was then blocked in 5% skimmed milk powder, TBST, 0.1% TWEEN® 20 (#P9416; Sigma-Aldrich) and Tris-buffered saline for 1 hour, and then incubated with primary antibodies at 4° C. overnight. The antibodies are as follows: Olfr110 (36 kDa; 1:1,000; #ab177327; Abcam), anti rhodopsin (39 kDa; 1:1,000; #MABN15; Millipore), CREB (43 kDa; 1:1,000; #9197; Cell Signaling Technology), phospho-CREB (43 kDa; 1:1,000; #9198; Cell Signaling Technology), ERK (44 kDa; 1:1,000; #sc094; Santa Cruz), phospho-ERK (42, 44 kDa; 1:1,000; #sc-7383; Santa Cruz), phospho-Akt (60 kDa; 1:500; sc-293125; Santa Cruz), phospho-JNK (46, 54 kDa; 1:500; sc-6254; Santa Cruz), phosphor-p38 (38 kDa; 1:1,000; sc-7973; Santa Cruz), or beta-Actin (45 kDa; 1:10,000; #4967; Cell Signaling Technology). Furthermore, an isotype-matched horseradish peroxidase-conjugated secondary antibody was used at 1:100,000 with anti-rabbit in TBST (#711-035-152; Jackson ImmunoResearch) and 1:40,000 with anti-mouse (#715-035-150; Jackson ImmunoResearch) at room temperature for 2 hours. As an immunoreactive protein band, SuperSignal™ West Pico Chemiluminescent Substrate (#34080; Thermo Fisher Scientific) was used."}}, "note": "Entries after “also recorded” stand apart in the source; their conditions may differ."}
{"smiles": "CCCCCc1ccco1", "note": "[2-PF, 2-pentylfuran]", "values": [{"measurement": "mobility (chemotaxis) of Olfr110-expressing Hana3A cells", "setting": "[1]", "result": "increased in mobility in a concentration-dependent manner"}, {"measurement": "mRNA expression level of inflammatory cytokines in the cerebral cortex", "setting": "cerebral cortex", "result": "significantly increased"}, {"measurement": "cAMP concentration in primary microglia", "setting": "primary microglia [2]", "result": "increased by 2-PF treatment in a concentration dependent manner"}, {"measurement": "Olfr110 protein level (immunostaining)", "setting": "Olfr110", "result": "significantly increases"}, {"measurement": "reactivity of Olfr111 (relative luciferase activity)", "setting": "Olfr111", "result": "particularly strong reactivity; also recorded: highest reactivity"}, {"measurement": "mobility of the mouse (total movement distance)", "setting": "[3]", "result": "concentration-dependent decrease"}, {"measurement": "phosphorylation levels of ERK, p38, JNK, and Akt", "setting": "primary microglia [4]", "result": "increased from 2 minutes and stopped increasing at 20 minutes"}]}
